# Entries after “also recorded” stand apart in the source; their conditions may differ.
# Experiments:
# hABC1 promoter [1] = experiment: hABC1 promoter-luciferase reporter in RAW 264.7 cells; type: cell-based, mouse; settings: for hABC1 promoter activity compared to basal conditions: 10 μM, Firefly/Renilla luciferase ratio vs ethanol; for hABC1 promoter induction (summary statement): RAW macrophages, upstream promoter (-469 bp)
# Procedure: In FIG. 5A a fragment of the hABC1 promoter ([…] to +101 bp) was linked to Firefly luciferase reporter gene. The resulting plasmid was cotransfected with a control reporter plasmid (Renilla luciferase) in the mouse macrophage-like RAW 264.7 cells. Four independent transfections experiments (each in triplicates) were performed. The results are expressed as a ratio between the Firefly and Renilla luciferase activities. Cells were treated with vehicle or 22(R)-Hch (10 μM), 9CRA (10 μM) and 22(R)-Hch (10 μM)+9CRA (10 μM), 24 hours in FBS medium complemented with 10% LPDS. […] Two independent experiments in triplicate were performed according to the protocol described in (a), using a shorter promoter: […] +101 pb. […] The same experiments as (a) were performed using 22(R)-Hch (10 μM), 25-Hch (10 μM), 7K-Ch (10 μM) and 9CRA (10 μM). Three to four independent experiments in duplicate or triplicate were performed. Mann Whitney tests were mean to analyze the difference between “Ethanol” and “Treatment”. In these Figures, ***=P<0.001,*=P<0.05.
# (§1) The cell lines were purchased from ATCC (Rockville, Md., USA). The murine RAW 264.7, African green monkey CV-1, and human 293 or HepG2 cell lines were maintained in Dulbecco's modified Eagle's medium (DMEM) with 10% Fetal Bovine Serum (FBS), 100 U/ml penicillin and […] streptomycin. THP-1 cells were maintained in RPMI-1640 containing L-glutamine, 10% heat inactivated FBS, 100 U/ml penicillin and […] streptomycin supplemented with 0.5 mM B-mercaptoethanol. Confluent cells were differentiated with 0.2 mM phorbol 12-myristate 13-acetate (Sigma Chemical Co., St Louis, Mo., USA) in ethanol during 72 hours. Thioglycollate-elicited peritoneal macrophages were isolated from C57 Bl/6 mice as described (31).
# (§2) Transfections were performed in 24-wells plates with Lipofectamine reagent (transactivation experiments in CV-1 and 293 cells, FIG. 6-7) or Lipofectamine-Plus reagent (Basal activation experiments in RAW 264.7, FIG. 5) according to the manufacturer's instructions (Life Technologies, Grand Island, N.Y., USA). For basal activation experiments a total of […] of reporter DNA and 0.05 mg of PRL-CMV(Renilla) (Promega Corp., Madison, Wis., USA) per well were used. For transactivation studies we used, per well, 0.025 mg of PRL-CMV, 0.2 mg of reporter DNA and 0.1 mg of each receptors (CMX-hRXRα, CMX-hLXRα, CMV-mLXRβ) or 0.2 mg of pcDNA3. The transfected cells were cultured in lipoprotein deficient serum (LPDS) medium in the presence of […] of 22(R)-hydroxycholesterol (22(R)-HCh), 25-hydroxycholesterol (25-HCh) or 7-ketocholesterol (7-KCh), […] 9-cis retinoic acid (9CRA) (Sigma Chemical Co., St Louis, Mo., USA) or ethanol alone for 24 hours. The luciferase activities were measured using Promega Dual Luciferase assay system. Reporter plasmid used to analyse the activity of hABC1 promoter was constructed by subcloning a 1029 bp PCR fragment of hABC1 promoter (−928 bp +101 bp) into pGL3-Luc basic vector (Promega). […] A shorter promoter (−469 bp to +101 bp) was generated by digestion of this plasmid with Sac1. Where shown, error bars represent the standard deviation.
# LXR = settings: from cited references; cited from earlier work
# hABC1 promoter [2] = experiment: hABC1 promoter (-469 bp +101 bp) luciferase reporter in 293 cells with or without LXR/RXR; type: cell-based, human; settings: for upregulation of the hABC1 promoter: 293 cells without transfected LXR/hRXR, 10 μM, 24 h
# Procedure: as §1, §2
# [3] = tested on: LXR/hRXRα binding site of the CETP promoter; experiment: Luciferase reporter with 3 copies of the LXR responsive element of the CETP promoter in 293 cells; type: cell-based, human; settings: for increase in luciferase activity: absence of transfected receptors
# Procedure: as §2
# [4] = tested on: hABC1 mRNA in THP-1 macrophages; experiment: Northern blot of ABC1 mRNA in THP-1 macrophages; type: cell-based, human; set-up: dose or concentration left out as unconfirmed; settings: 24 h, vs ethanol
# Procedure: as §1
# hABC1 promoter [5] = experiment: Transactivation of the hABC1 promoter by LXR/RXR in CV-1 cells; type: cell-based, human
# Procedure: as §2, with “The cell lines were purchased from ATCC (Rockville, Md., USA). The murine RAW 264.7, African green monkey CV-1, and human 293 or HepG2 cell lines were maintained in Dulbecco's modified Eagle's medium (DMEM) with 10% Fetal Bovine Serum (FBS), 100 U/ml penicillin and […] streptomycin. THP-1 cells were maintained in RPMI-1640 containing L-glutamine, 10% heat inactivated FBS, 100 U/ml penicillin and […] streptomycin supplemented with 0.5 mM B-mercaptoethanol. Confluent cells were differentiated with 0.2 mM phorbol 12-myristate 13-acetate (Sigma Chemical Co., St Louis, Mo., USA) in ethanol during 72 hours. Thioglycollate-elicited peritoneal macrophages were isolated from C57 Bl/6 mice as described (31). Transfections” for “Transfections”
# SF1 = SF1 (Homo sapiens, UniProt Q13285); settings: from cited references; cited from earlier work
# Sequence of SF1 (Q13285 whole entry): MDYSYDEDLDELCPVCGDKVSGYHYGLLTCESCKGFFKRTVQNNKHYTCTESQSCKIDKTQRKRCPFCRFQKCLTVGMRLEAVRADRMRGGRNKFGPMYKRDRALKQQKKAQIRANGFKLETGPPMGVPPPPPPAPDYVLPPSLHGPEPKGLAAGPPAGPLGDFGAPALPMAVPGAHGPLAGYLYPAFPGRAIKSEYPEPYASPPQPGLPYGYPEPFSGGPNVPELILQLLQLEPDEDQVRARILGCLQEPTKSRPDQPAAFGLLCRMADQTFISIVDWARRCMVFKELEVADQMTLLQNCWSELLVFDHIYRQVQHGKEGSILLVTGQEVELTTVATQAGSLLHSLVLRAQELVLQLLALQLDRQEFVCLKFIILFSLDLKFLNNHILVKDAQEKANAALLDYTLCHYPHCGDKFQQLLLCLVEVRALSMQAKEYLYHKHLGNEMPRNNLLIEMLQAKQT
Compound,"hABC1 promoter activity compared to basal conditions (hABC1 promoter [1]; RAW 264.7 cells, 24 h)",activator of LXR / LXR-RXR (LXR),hABC1 promoter induction (summary statement) (hABC1 promoter [1]) [fold],upregulation of the hABC1 promoter (hABC1 promoter [2]) [fold],ABC1 mRNA induction [4] [fold],increase in luciferase activity [3] [fold],activator of SF1 (SF1),also measured
"CC(C)CCC[C@@H](C)[C@H]1CC[C@H]2[C@@H]3C(=O)C=C4C[C@@H](O)CC[C@]4(C)[C@H]3CC[C@]12C [7-KCh, 7-ketocholesterol]",No significant effect; also recorded: poor activator,–,–,–,–,–,–,"hABC1 promoter activity compared to 9CRA alone (hABC1 promoter [1]; RAW 264.7 cells, sterol in combination with 9CRA (10 μM each), 24 h): 2 fold"
C[C@@H](CO)CCC[C@@H](C)[C@H]1CC[C@H]2[C@@H]3CC=C4C[C@@H](O)CC[C@]4(C)[C@H]3CC[C@]12C [27-HCh],–,relatively poor activator,–,–,–,–,–,–
"CC1=C(/C=C/C(C)=C\C=C\C(C)=C\C(=O)O)C(C)(C)CCC1 [9CRA, 9-cis retinoic acid]",8 fold,–,8,3.5,–,–,–,effect on hABC1 promoter activity with transfected receptors (hABC1 promoter [2]; 293 cells transfected with LXRα/hRXRα): no additional effect; activity compared to non-transfected cells ([3]; LXR transfected): no further increase in activity
9-cis retinoic acid [9CRA],–,–,–,–,2,24,–,–
"CC(C)CC[C@@H](O)[C@@H](C)[C@H]1CC[C@H]2[C@@H]3CC=C4C[C@@H](O)CC[C@]4(C)[C@H]3CC[C@]12C [22(R)-HCh, 22(R)-hydroxycholesterol]",7 fold,good activator,7,4.5,2,14,poor activator,transactivation of the hABC1 promoter compared to the control with no receptor (hABC1 promoter [5]; CV-1 cells cotransfected with hRXRα/LXRα): 6 fold; transactivation of the hABC1 promoter compared to the control with no receptor (hABC1 promoter [5]; CV-1 cells cotransfected with hRXRα/LXRβ): 8 fold; activation of the hABC1 promoter (hABC1 promoter [5]; CV-1 cells without transfected receptors): 4 fold
"C[C@H](CCCC(C)(C)O)[C@H]1CC[C@H]2[C@@H]3CC=C4C[C@@H](O)CC[C@]4(C)[C@H]3CC[C@]12C [25-HCh, 25-hydroxycholesterol]",1.5 fold,poor activator,–,–,–,–,good activator,–
